Data set [1] addresses T1, Cytochrome P450 2B6 (Homo sapiens, UniProt P20813).
T1 sequence (P20813 whole entry): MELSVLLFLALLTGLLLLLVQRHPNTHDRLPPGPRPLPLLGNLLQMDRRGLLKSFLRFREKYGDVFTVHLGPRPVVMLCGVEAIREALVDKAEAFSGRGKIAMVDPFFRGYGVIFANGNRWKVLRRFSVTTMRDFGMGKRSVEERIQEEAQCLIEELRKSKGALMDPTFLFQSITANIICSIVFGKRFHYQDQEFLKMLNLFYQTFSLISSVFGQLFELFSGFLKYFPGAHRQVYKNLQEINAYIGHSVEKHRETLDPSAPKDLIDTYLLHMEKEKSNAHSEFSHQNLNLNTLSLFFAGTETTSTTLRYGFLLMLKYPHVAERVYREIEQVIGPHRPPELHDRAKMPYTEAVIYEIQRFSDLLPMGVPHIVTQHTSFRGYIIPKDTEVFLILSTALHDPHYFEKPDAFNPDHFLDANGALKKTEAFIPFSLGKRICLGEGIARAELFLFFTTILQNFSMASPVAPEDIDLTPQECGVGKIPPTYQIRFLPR
Nature of the data set: Binding affinity to recombinant CYP2B6 (unknown origin) assessed as spectral dissociation constant-1. The note with it: read-out: Ks.

Data set [2] concerns the target T1, Cytochrome P450 2B6. The experiment in a line: Drug metabolism assessed as CYP2B6 (unknown origin)-mediated d4-BuOH metabolite formation by measuring Kcat. It is filed as ADME.
Data set [3] concerns the target T1, Cytochrome P450 2B6. Nature of the data set: Drug metabolism assessed as CYP2B6 (unknown origin)-mediated d4-BuOH metabolite formation by measuring km. It is filed as ADME.
The target of data set [4] is T1, Cytochrome P450 2B6. The experiment in a line: Drug metabolism assessed as CYP2B6 (unknown origin)-mediated d9-BuOH metabolite formation by measuring Kcat. In kind it is ADME.
Data set [5] addresses T1, Cytochrome P450 2B6. Nature of the data set: Drug metabolism assessed as CYP2B6 (unknown origin)-mediated d9-BuOH metabolite formation by measuring km. It is filed as ADME.
For data set [6], the target named is T1, Cytochrome P450 2B6. Nature of the data set: Binding affinity to recombinant CYP2B6 (unknown origin) assessed as spectral dissociation constant-2. The note with it: read-out: Ks.
Data set [7] concerns the target T1, Cytochrome P450 2B6. Nature of the data set: Drug metabolism assessed as CYP2B6 (unknown origin)-mediated metabolite formation by measuring Kcat. In kind it is ADME.
Data set [8] addresses T1, Cytochrome P450 2B6. The experiment in a line: Drug metabolism assessed as CYP2B6 (unknown origin)-mediated metabolite formation by measuring km. In kind it is ADME.

In general, Km refers to the concentration of substrate that gives half-maximal velocity. Regarding `[2H]C([2H])([2H])[C@@]([2H])(NC(C)(C)C)C(=O)c1cccc(Cl)c1`, at Cytochrome P450 2B6 [1], the Kd turned out to be 11300 µM. Also, at Cytochrome P450 2B6 [2], the Kcat is 0.061 s⁻¹. Also, the Km at Cytochrome P450 2B6 [3] came to 266 µM.

Turning to `[2H]C([2H])([2H])C(N[C@@]([2H])(C)C(=O)c1cccc(Cl)c1)(C([2H])([2H])[2H])C([2H])([2H])[2H]`, the Kcat at Cytochrome P450 2B6 [4] was found to be 0.02462 s⁻¹. Moreover, the Km on Cytochrome P450 2B6 [5] is 279 µM. The Kd on Cytochrome P450 2B6 [1] came to 10.3 µM; on Cytochrome P450 2B6 [6], 1140 µM.

As for `[2H]C([2H])([2H])C(N[C@]([2H])(C)C(=O)c1cccc(Cl)c1)(C([2H])([2H])[2H])C([2H])([2H])[2H]`, the Kcat at Cytochrome P450 2B6 [4] came to 0.003865 s⁻¹. The Km at Cytochrome P450 2B6 [5] came to 264 µM. Moreover, the Kd at Cytochrome P450 2B6 [1] was 3.91 µM; on Cytochrome P450 2B6 [6] it was 1180 µM.

As to `[2H]C([2H])([2H])[C@]([2H])(NC(C)(C)C)C(=O)c1cccc(Cl)c1`, at Cytochrome P450 2B6 [1], the Kd stood at 2870 µM. For the same molecule, the Kcat at Cytochrome P450 2B6 [2] is 0.05578 s⁻¹. The Km at Cytochrome P450 2B6 [3] was found to be 131 µM.

Consider `CC(NC(C)(C)C)C(=O)c1cccc(Cl)c1` (racemic) [BUPROPION], for which the Kcat at Cytochrome P450 2B6 [7] was 0.14 s⁻¹. Further, the Km at Cytochrome P450 2B6 [8] amounted to 94.7 µM. Further, at Cytochrome P450 2B6 [1], the Kd came out at 314 µM.

These data come from ChEMBL document CHEMBL5214950 (Bioorg Med Chem Lett, 2022).
